From PubChem BioAssay (NCI)
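Growth conditions: 96-well plates. Treatment: test compound, 48 hours, 5 concentrations. Analysis: linear interpolation between bracketing concentrations; unreached endpoints set to highest concentration. GI50: concentration for 50% inhibition of growth. At the TGI there is no net growth.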

Experiments:
Experiment in all cases: inhibition of tumour cell growth, NCI panel, 48 h
SK-MEL-2 melanoma = system: SK-MEL-2 melanoma
LOX IMVI melanoma = system: LOX IMVI melanoma
U251 CNS = system: U251 CNS
HCT-15 colon = system: HCT-15 colon
UO-31 renal = system: UO-31 renal
EKVX NSCLC = system: EKVX NSCLC
NCI-H23 lung = system: NCI-H23 lung
SK-OV-3 ovarian = system: SK-OV-3 ovarian
NCI-H522 lung = system: NCI-H522 lung
MDA-N = system: MDA-N

| SMILES | TGI (SK-MEL-2 melanoma) [µM] | TGI (LOX IMVI melanoma) [µM] | TGI (U251 CNS) [µM] | TGI (HCT-15 colon) [µM] | TGI (UO-31 renal) [µM] | TGI (EKVX NSCLC) [µM] | TGI (NCI-H23 lung) [µM] | TGI (SK-OV-3 ovarian) [µM] | TGI (NCI-H522 lung) [µM] | TGI (MDA-N) [µM] | GI50 (SK-MEL-2 melanoma) [µM] | GI50 (LOX IMVI melanoma) [µM] | GI50 (U251 CNS) [µM] | GI50 (HCT-15 colon) [µM] | GI50 (UO-31 renal) [µM] | GI50 (EKVX NSCLC) [µM] | GI50 (NCI-H23 lung) [µM] | GI50 (NCI-H522 lung) [µM] | GI50 (SK-OV-3 ovarian) [µM] |
| --- | --- | --- | --- | --- | --- | --- | --- | --- | --- | --- | --- | --- | --- | --- | --- | --- | --- | --- | --- |
| O=C(O)\C=C/C=C/C=C/C=C/C(=O)O | > 100 | > 100 | > 100 | > 100 | > 100 | > 100 | > 100 | > 100 | > 100 | – | – | – | – | – | – | – | – | – | – |
| Nc1ccc([As](=O)(O)O)cc1 | > 100 | > 100 | > 100 | > 100 | > 100 | > 100 | > 100 | > 100 | > 100 | > 100 | – | – | – | – | – | – | – | – | – |
| NS(=O)(=O)c1ccc(C(=O)O)cc1 | > 100 | > 100 | > 100 | > 100 | > 100 | > 100 | > 100 | > 100 | > 100 | > 100 | – | – | – | – | – | – | – | – | – |
| CC(C)(c1ccccc1)c1ccc(Oc2ccc3c(c2)-c2nc-3nc3[nH]c(nc4nc(nc5[nH]c(n2)c2ccc(Oc6ccc(C(C)(C)c7ccccc7)cc6)cc52)-c2cc(Oc5ccc(C(C)(C)c6ccccc6)cc5)ccc2-4)c2ccc(Oc4ccc(C(C)(C)c5ccccc5)cc4)cc32)cc1 | > 100 | > 100 | > 100 | – | > 100 | > 100 | > 100 | > 100 | > 100 | – | – | – | – | – | – | – | – | – | – |
| Cn1ncc2c(=O)[nH]c(-c3ccccc3)nc21 | > 100 | > 100 | > 100 | > 100 | > 100 | > 100 | > 100 | > 100 | > 100 | – | – | – | – | – | – | – | – | – | – |
| CCCCCCCCCCCCCCC(C(=O)[O-])[n+]1ccccc1 (stereo not drawn) | > 100 | > 100 | > 100 | > 100 | > 100 | > 100 | > 100 | > 100 | > 100 | > 100 | – | – | – | – | – | – | – | – | – |
| Cc1cccc(NC(N)=S)c1 | > 100 | > 100 | > 100 | > 100 | > 100 | > 100 | > 100 | > 100 | > 100 | – | – | – | – | – | – | – | – | – | – |
| N=C(N)SC(c1ccccc1)c1ccccc1 | 32 | 30.7 | 29.4 | 40.7 | 23.2 | 33.6 | 28.3 | > 100 | 34.8 | 26.5 | – | – | – | – | – | – | – | – | – |
| CC1(C)CCCC2(C)C3=C(CCC12)C(=O)OC3 (stereo not drawn) | > 100 | > 100 | > 100 | > 100 | > 100 | > 100 | > 100 | > 100 | > 100 | > 100 | – | – | – | – | – | – | – | – | – |
| O=C(Nc1ccc(-n2ccc3c(NC(=O)c4ccccc4)ncnc32)cc1)Nc1ccc(Cl)c(C(F)(F)F)c1 | 5.66 | 6.77 | 2.55 | 2.19 | 4.73 | 4.99 | 5.28 | – | 2.89 | – | 2.44 | 2 | 1.2 | 0.765 | 2.04 | 1.97 | 2.19 | 1.07 | – |
| Cc1cc(N2CCCCC2)nc(NCc2cc(Nc3ccnc4cc(Cl)ccc34)ccc2F)n1 | 3.59 | 3.29 | 3.15 | 3.8 | 3.13 | 3.77 | 4.92 | 3.48 | 3.37 | – | 1.89 | 1.73 | 1.71 | 1.84 | 1.61 | 1.62 | 1.83 | 1.71 | 1.93 |
| O=C1CC(c2ccccc2)NCCCCN2CC(CN1)C(C(O)c1ccccc1)C2=O (stereo not drawn) | > 100 | > 100 | > 100 | > 100 | > 100 | > 100 | > 100 | > 100 | > 100 | > 100 | – | – | – | – | – | – | – | – | – |
| CC1(C)CCc2cc3c(cc2O1)OC(C)(C)CC3=O | > 100 | > 100 | > 100 | > 100 | > 100 | > 100 | > 100 | > 100 | > 100 | – | – | – | – | – | – | – | – | – | – |
